Measured values: ChEMBL document CHEMBL1201862, “PubChem BioAssay data set” (2004)
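Grown in 96-well plates, cells were treated for 48 hours with each compound at five concentrations. Insufficient inhibition: endpoint recorded as highest concentration tested. GI50 marks 50% less growth.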 Activity calls are given as the source filed them. Cut-off read from the data, not from the text of the source: active = GI50 up to about 1.1 µM and inactive = higher.

Key:
Experiment in all cases: NCI anticancer screen, dose series, 48 h
[1] = test system: 786-0
[2] = test system: A498
[3] = test system: A549
[4] = test system: ACHN
[5] = test system: CAKI-1
[6] = test system: CCRF-CEM
[7] = test system: COLO 205
[8] = test system: DLD-1
[9] = test system: DMS-114
[10] = test system: DMS-273
[11] = test system: EKVX
[12] = test system: HCC 2998
[13] = test system: HCT-116
[14] = test system: HCT-15
[15] = test system: HL-60
[16] = test system: HOP-18
[17] = test system: HOP-62
[18] = test system: HOP-92
[19] = test system: HT-29
[20] = test system: IGROV-1
[21] = test system: K562
[22] = test system: KM-20L2
[23] = test system: KM12
[24] = test system: LOX IMVI
[25] = test system: LXFL 529
[26] = test system: M14
[27] = test system: M19-MEL
[28] = test system: MOLT-4
[29] = test system: Malme-3M
[30] = test system: NCI-H226
[31] = test system: NCI-H23
[32] = test system: NCI-H460
[33] = test system: NCI-H522
[34] = test system: OVCAR-3
[35] = test system: OVCAR-4
[36] = test system: OVCAR-5
[37] = test system: OVCAR-8
[38] = test system: RPMI-8226
[39] = test system: RXF 393
[40] = test system: SF-268
[41] = test system: SF-295
[42] = test system: SF-539
[43] = test system: SK-MEL-28
[44] = test system: SK-MEL-2
[45] = test system: SK-MEL-5
[46] = test system: SK-OV-3
[47] = test system: SN12C
[48] = test system: SNB-19
[49] = test system: SNB-75
[50] = test system: SNB-78
[51] = test system: SW-620
[52] = test system: TK-10
[53] = test system: U-251
[54] = test system: UACC-257
[55] = test system: UO-31
[56] = test system: XF498
[57] = test system: SR
[58] = test system: UACC-62

## CC12CCc3ccccc3C1=NNC(=O)C2 (stereo unspecified)
[1]
  GI50: > 100 µM (inactive)
[2]
  GI50: > 100 µM (inactive)
[3]
  GI50: > 100 µM (inactive)
[4]
  GI50: > 100 µM (inactive)
[5]
  GI50: > 100 µM (inactive)
[6]
  GI50: > 100 µM (inactive)
[7]
  GI50: > 100 µM (inactive)
[8]
  GI50: > 100 µM (inactive)
[9]
  GI50: > 100 µM (inactive)
[10]
  GI50: > 100 µM (inactive)
[11]
  GI50: > 100 µM (inactive)
[12]
  GI50: > 100 µM (inactive)
[13]
  GI50: > 100 µM (inactive)
[14]
  GI50: > 100 µM
[15]
  GI50: 82 µM (inactive)
[16]
  GI50: > 100 µM (inactive)
[17]
  GI50: > 100 µM (inactive)
[18]
  GI50: > 100 µM (inactive)
[19]
  GI50: > 100 µM (inactive)
[20]
  GI50: > 100 µM (inactive)
[21]
  GI50: > 100 µM (inactive)
[22]
  GI50: > 100 µM (inactive)
[23]
  GI50: > 100 µM (inactive)
[24]
  GI50: > 100 µM (inactive)
[25]
  GI50: > 100 µM (inactive)
[26]
  GI50: > 100 µM (inactive)
[27]
  GI50: > 100 µM (inactive)
[28]
  GI50: > 100 µM (inactive)
[29]
  GI50: > 100 µM (inactive)
[30]
  GI50: > 100 µM (inactive)
[31]
  GI50: > 100 µM (inactive)
[32]
  GI50: > 100 µM (inactive)
[33]
  GI50: > 100 µM (inactive)
[34]
  GI50: > 100 µM (inactive)
[35]
  GI50: > 100 µM (inactive)
[36]
  GI50: > 100 µM (inactive)
[37]
  GI50: > 100 µM (inactive)
[38]
  GI50: > 100 µM (inactive)
[39]
  GI50: > 100 µM (inactive)
[40]
  GI50: > 100 µM (inactive)
[41]
  GI50: > 100 µM (inactive)
[42]
  GI50: > 100 µM (inactive)
[43]
  GI50: > 100 µM (inactive)
[44]
  GI50: > 100 µM (inactive)
[45]
  GI50: > 100 µM (inactive)
[46]
  GI50: > 100 µM (inactive)
[47]
  GI50: > 100 µM (inactive)
[48]
  GI50: > 100 µM (inactive)
[49]
  GI50: > 100 µM (inactive)
[50]
  GI50: > 100 µM (inactive)
[51]
  GI50: > 100 µM (inactive)
[52]
  GI50: > 100 µM (inactive)
[53]
  GI50: > 100 µM (inactive)
[54]
  GI50: > 100 µM (inactive)
[55]
  GI50: > 100 µM (inactive)
[56]
  GI50: > 100 µM (inactive)

## [O-]c1c2c(nn1-c1ccc(Cl)cc1)c1ccccc1c[n+]2Cc1ccccc1
[1]
  GI50: 33.3 µM (inactive)
[3]
  GI50: 63.4 µM (inactive)
[4]
  GI50: 80.5 µM (inactive)
[5]
  GI50: > 100 µM (inactive)
[6]
  GI50: > 100 µM (inactive)
[7]
  GI50: > 100 µM (inactive)
[8]
  GI50: 81.5 µM (inactive)
[9]
  GI50: > 100 µM (inactive)
[10]
  GI50: > 100 µM (inactive)
[11]
  GI50: > 100 µM (inactive)
[12]
  GI50: > 100 µM (inactive)
[13]
  GI50: > 100 µM (inactive)
[15]
  GI50: > 100 µM (inactive)
[16]
  GI50: > 100 µM (inactive)
[17]
  GI50: > 100 µM (inactive)
[19]
  GI50: > 100 µM (inactive)
[20]
  GI50: 62.4 µM (inactive)
[21]
  GI50: > 100 µM (inactive)
[22]
  GI50: > 100 µM (inactive)
[23]
  GI50: > 100 µM (inactive)
[24]
  GI50: > 100 µM (inactive)
[25]
  GI50: > 100 µM (inactive)
[26]
  GI50: > 100 µM (inactive)
[27]
  GI50: > 10 µM (inactive)
[28]
  GI50: > 100 µM (inactive)
[29]
  GI50: 45.4 µM (inactive)
[30]
  GI50: > 100 µM (inactive)
[31]
  GI50: > 100 µM (inactive)
[32]
  GI50: > 100 µM (inactive)
[33]
  GI50: 58.9 µM (inactive)
[34]
  GI50: > 100 µM (inactive)
[35]
  GI50: 46.2 µM (inactive)
[36]
  GI50: > 100 µM (inactive)
[37]
  GI50: 65.9 µM (inactive)
[38]
  GI50: > 100 µM (inactive)
[39]
  GI50: 27 µM (inactive)
[40]
  GI50: 95.3 µM (inactive)
[41]
  GI50: 78.9 µM (inactive)
[42]
  GI50: 80.4 µM (inactive)
[43]
  GI50: > 100 µM (inactive)
[44]
  GI50: > 100 µM (inactive)
[45]
  GI50: 58.7 µM (inactive)
[46]
  GI50: 40.2 µM (inactive)
[47]
  GI50: > 100 µM (inactive)
[48]
  GI50: > 100 µM (inactive)
[49]
  GI50: 32.2 µM (inactive)
[50]
  GI50: > 100 µM (inactive)
[57]
  GI50: > 100 µM (inactive)
[51]
  GI50: > 100 µM (inactive)
[52]
  GI50: > 100 µM (inactive)
[53]
  GI50: > 100 µM (inactive)
[54]
  GI50: > 100 µM (inactive)
[58]
  GI50: 44.6 µM (inactive)
[55]
  GI50: > 100 µM (inactive)
[56]
  GI50: 35 µM (inactive)
